# Measured values published in ChEMBL document CHEMBL4414664, “An Effective Strategy for Identification of Highly Unstable Bacillaenes” (2019).
# Calls of active or inactive are those of the source. The rule behind the calls is not given here.
# Key:
# Escherichia coli = assay: Antibacterial activity against Escherichia coli CCARM 1009 assessed as inhibition zone at 10 mg/ml incubated for 18 hrs by radial diffusion assay; type: functional, organism-based
# Enterococcus faecium [1] = assay: Antibacterial activity against Enterococcus faecium CCARM 5203 assessed as inhibition zone at 10 mg/ml incubated for 18 hrs by radial diffusion assay; type: functional, organism-based
# Salmonella typhimurium = assay: Antibacterial activity against Salmonella typhimurium CCARM 8250 assessed as inhibition zone at 10 mg/ml incubated for 18 hrs by radial diffusion assay; type: functional, organism-based; settings: Salmonella enterica subsp. enterica serovar Typhimurium
# Enterococcus faecium [2] = assay: Antibacterial activity against Enterococcus faecium CCARM 5203 assessed as reduction in bacterial growth at 12.5 ug/ml incubated for 18 hrs by serial dilution method relative to control; type: functional
SMILES,inhibition zone (IZ) (Escherichia coli),inhibition zone (IZ) (Enterococcus faecium [1]),inhibition zone (IZ) (Salmonella typhimurium),growth inhibition (GI) (Enterococcus faecium [2]),"inhibition of growth at 12.5 µg/mL (Enterococcus faecium [2]; CCARM 5203, 18 h, read-out: GI)"
C/C(=C/C=C/C=C/C(C)C(=O)O)NC(=O)CC(O)\C(C)=C/C=C\C=C(C)\C=C\C=C\CCCNC(=O)C(CC(C)C)O[C@@H]1O[C@H](CO)[C@@H](O)[C@H](O)[C@H]1O (some centres undefined),inactive,inactive,inactive,,
C/C(=C/C=C/C=C/C(C)C(=O)O)NC(=O)CC(O)\C(C)=C/C=C\C=C(C)\C=C\C=C/C=C/CNC(=O)C(CC(C)C)O[C@@H]1O[C@H](CO)[C@@H](O)[C@H](O)[C@H]1O (some centres undefined),inactive,inactive,inactive,inactive,
C/C(=C/C=C/C=C/C(C)C(=O)O)NC(=O)CC(O)\C(C)=C/C=C\C=C(C)\C=C\C=C/CCCNC(=O)C(CC(C)C)O[C@@H]1O[C@H](CO)[C@@H](O)[C@H](O)[C@H]1O (some centres undefined),inactive,inactive,inactive,inactive,
C/C(=C/C=C/C=C/C(C)C(=O)O)NC(=O)CC(O)\C(C)=C/C=C\C=C(C)\C=C\C=C/C=C/CNC(=O)C(O)CC(C)C (centres undefined),Active,Active,Active,,> 80%
C/C(=C/C=C/C=C/C(C)C(=O)O[C@@H]1O[C@H](CO)[C@@H](O)[C@H](O)[C@H]1O)NC(=O)CC(O)\C(C)=C/C=C\C=C(C)\C=C\C=C/C=C/CNC(=O)C(O)CC(C)C (some centres undefined),inactive,inactive,inactive,,
C/C(=C/C=C/C=C/C(C)C(=O)O)NC(=O)CC(O)\C(C)=C/C=C\C=C(C)\C=C\C=C/CCCNC(=O)C(O)CC(C)C (centres undefined),,,,Active,
